{
  "source": "paper PMC9046089",
  "about": "“CCNE1 amplification is synthetic lethal with PKMYT1 kinase inhibition” (Nature, 2022)",
  "key": {"cytoplasmic cyclin B": {"tested_on": "cytoplasmic cyclin B", "test": "QIBC of cytoplasmic cyclin B intensity in EdU+ cells after HU or gemcitabine", "format": "cell-based", "settings": "48 h", "method": "Before collection, cells were pulsed with 20 μM EdU (5-ethynyl-2-deoxyuridine, Life Technologies cat. no. A10044) for 30 min and then washed with PBS and fixed with 4% paraformaldehyde (PFA) in PBS for 15 min at room temperature. Cells were then rinsed with PBS and permeabilized using 0.3% Triton X-100/PBS for 30 min. For chromatin-bound MCM measurements, cells were pre-extracted for 15 min on ice with CSK buffer (300 mM sucrose, 100 mM NaCl, 3 mM MgCl2, 10 mM PIPES pH 7.0, 0.5% v/v Triton-X 100) before PFA fixation. […] Fresh blocking buffer containing primary antibodies was added for 2 h. Cells were rinsed three times with PBS and then blocking buffer, with secondary antibodies and 0.4 μg ml^−1 DAPI (4,6-diamidino-2-phenylindole, Sigma-Aldrich, cat. no. D9542) was added for 1 h. After rinsing with PBS, immunocomplexes were fixed again using 4% PFA/PBS for 5 min.\nCells were fixed, permeabilized and stained in the same manner as immunofluorescence described above. Wells were filled with 200 μl PBS and images were acquired at the Network Biology Collaborative Centre (LTRI) on an InCell Analyzer 6000 automated microscope (GE Life Sciences) with a 20× objective. Image analysis was performed using Cellprofiler 3.1.9 and RStudio v1.2.5019[57] (Supplementary Fig. 4)."}, "[1]": {"tested_on": "cyclin B, CDK1, CDK1-pT14", "test": "Immunoblot of cyclin B, CDK1 and CDK1-pT14 after HU or gemcitabine", "settings": "for Quantitation of CDK1 (immunoblot of whole cell lysates) / Quantitation of CDK1-pT14 relative to total CDK1 (immunoblot of whole cell lysates) / Quantitation of cyclin B (immunoblot of whole cell lysates): FT282-hTERT-p53-R175H, DMSO = 1; for levels of cyclin B or CDK1: immunoblot and QIBC; for CDK1 pT14 levels: immunoblot, controlling for total CDK1"}, "SNU8 cells": {"tested_on": "SNU8 cells", "test": "Cell proliferation assay (Incucyte growth inhibition)", "format": "cell-based", "settings": "three replicates", "source_text": "(§1) Per cent confluence relative to a non-treated control was used to evaluate growth inhibition induced by test compounds. […] (https://synergyfinder.fimm.fi)."}, "SUM149PT cells": {"tested_on": "SUM149PT cells", "test": "Cell proliferation assay (Incucyte growth inhibition)", "format": "cell-based", "settings": "three replicates", "source_text": "as §1"}, "[2]": {"tested_on": "RPE1-hTERT TP53-/- Cas9 CCNE1-high cells", "test": "Cell proliferation assay (Incucyte growth inhibition)", "format": "cell-based", "settings": "read-out: RP-6306 EC50 (mM) RPE1 CCNE1 (C2), growth inhibition, three replicates", "source_text": "as §1"}, "NUGC3 cells": {"tested_on": "NUGC3 cells", "test": "Cell proliferation assay (Incucyte growth inhibition)", "format": "cell-based", "settings": "growth inhibition, three replicates", "source_text": "as §1"}, "[3]": {"tested_on": "RPE1-hTERT TP53-/- Cas9 parental cells", "test": "Cell proliferation assay (Incucyte growth inhibition)", "format": "cell-based", "settings": "read-out: RP-6306 EC50 (mM) RPE1 WT, growth inhibition, three replicates", "source_text": "as §1"}, "KYSE30 cells": {"tested_on": "KYSE30 cells", "test": "Cell proliferation assay (Incucyte growth inhibition)", "format": "cell-based", "settings": "growth inhibition, three replicates", "source_text": "as §1"}, "COV362 cells": {"tested_on": "COV362 cells", "test": "Cell proliferation assay (Incucyte growth inhibition)", "format": "cell-based", "settings": "growth inhibition, three replicates", "source_text": "as §1"}, "OVCAR3 cells": {"tested_on": "OVCAR3 cells", "test": "Cell proliferation assay (Incucyte growth inhibition)", "format": "cell-based", "settings": "growth inhibition, three replicates", "source_text": "as §1"}, "DOTC24510 cells": {"tested_on": "DOTC24510 cells", "test": "Cell proliferation assay (Incucyte growth inhibition)", "format": "cell-based", "settings": "growth inhibition, three replicates", "source_text": "as §1"}, "TOV112D cells": {"tested_on": "TOV112D cells", "test": "Cell proliferation assay (Incucyte growth inhibition)", "format": "cell-based", "settings": "three replicates", "source_text": "as §1"}, "HCC1569 cells": {"tested_on": "HCC1569 cells", "test": "Cell proliferation assay (Incucyte growth inhibition, synergy)", "format": "cell-based", "settings": "for % growth relative to untreated: RP-6306 0", "source_text": "as §1"}},
  "note": "Several values for one entry are separate records, joined by “and”; a condition that tells them apart may be missing. Equal entries are not always repeated.",
  "data": [
    {"molecule": "NC(=O)NO", "note": "[hydroxyurea]", "values": [
      {"measurement": "fold-change of cytoplasmic cyclin B intensity in EdU+ cells", "setting": "cytoplasmic cyclin B; FT282-hTERT-p53-R175H CCNE1 high (C3), HU 50 mM (so in the source), listed as HU", "value": "0.9979 and 0.9823 and 1.013"},
      {"measurement": "fold-change of cytoplasmic cyclin B intensity in EdU+ cells", "setting": "cytoplasmic cyclin B; FT282-hTERT-p53-R175H CCNE1 high (C3), HU 100 mM (so in the source), listed as HU", "value": "1.038 and 1.0461 and 1.056"},
      {"measurement": "fold-change of cytoplasmic cyclin B intensity in EdU+ cells", "setting": "cytoplasmic cyclin B; FT282-hTERT-p53-R175H CCNE1 high (C3), HU 200 mM (so in the source), listed as HU", "value": "1.095 and 1.0628 and 1.094"},
      {"measurement": "fold-change of cytoplasmic cyclin B intensity in EdU+ cells", "setting": "cytoplasmic cyclin B; FT282-hTERT-p53-R175H CCNE1 high (C3), HU 400 mM (so in the source), listed as HU", "value": "1.408 and 1.403 and 1.354"},
      {"measurement": "fold-change of cytoplasmic cyclin B intensity in EdU+ cells", "setting": "cytoplasmic cyclin B; FT282-hTERT-p53-R175H WT, HU 50 mM (so in the source), listed as HU", "value": "1.011 and 1.029 and 1.0186"},
      {"measurement": "fold-change of cytoplasmic cyclin B intensity in EdU+ cells", "setting": "cytoplasmic cyclin B; FT282-hTERT-p53-R175H WT, HU 100 mM (so in the source), listed as HU", "value": "1.025 and 1.031 and 1.053"},
      {"measurement": "fold-change of cytoplasmic cyclin B intensity in EdU+ cells", "setting": "cytoplasmic cyclin B; FT282-hTERT-p53-R175H WT, HU 200 mM (so in the source), listed as HU", "value": "1.0835 and 1.059 and 1.12"},
      {"measurement": "fold-change of cytoplasmic cyclin B intensity in EdU+ cells", "setting": "cytoplasmic cyclin B; FT282-hTERT-p53-R175H WT, HU 400 mM (so in the source), listed as HU", "value": "1.261 and 1.177 and 1.385"},
      {"measurement": "Quantitation of CDK1 (immunoblot of whole cell lysates)", "setting": "[1]; 400 µM HU, listed as HU", "value": "1.2117 and 1.452 and 2.133"},
      {"measurement": "Quantitation of CDK1-pT14 relative to total CDK1 (immunoblot of whole cell lysates)", "setting": "[1]; 400 µM HU, listed as HU", "value": "1.45 and 1.634 and 1.7444"},
      {"measurement": "Quantitation of cyclin B (immunoblot of whole cell lysates)", "setting": "[1]; 400 µM HU, listed as HU", "value": "1.625 and 1.428 and 1.053"},
      {"measurement": "levels of cyclin B or CDK1", "setting": "[1]", "value": "did not detect increased levels"},
      {"measurement": "CDK1 pT14 levels", "setting": "[1]", "value": "increased"}
    ]},
    {"molecule": "C[C@@]1(O)CCC[C@H]1n1c(=O)c(C(F)F)cc2cnc(NC3CCN(S(C)(=O)=O)CC3)nc21", "note": "[PF-06873600]", "values": [
      {"measurement": "EC50", "setting": "SNU8 cells", "value": "21 nM and 50 nM and 43 nM"},
      {"measurement": "EC50", "setting": "SUM149PT cells", "value": "75 nM and 85 nM and 80 nM"},
      {"measurement": "EC50", "setting": "[2]", "value": 0.000125, "unit": "mM"},
      {"measurement": "EC50", "setting": "NUGC3 cells", "value": "28 nM and 25 nM and 22 nM"},
      {"measurement": "EC50", "setting": "[3]", "value": "98 nM and 79 nM and 106 nM"},
      {"measurement": "EC50", "setting": "KYSE30 cells", "value": "32 nM and 22 nM and 29 nM"},
      {"measurement": "EC50", "setting": "COV362 cells", "value": "94 nM and 93 nM"},
      {"measurement": "EC50", "setting": "OVCAR3 cells", "value": "46 nM and 37 nM and 35 nM"},
      {"measurement": "EC50", "setting": "DOTC24510 cells", "value": "56 nM and 41 nM and 28 nM"},
      {"measurement": "EC50", "setting": "TOV112D cells", "value": "43 nM and 47 nM and 42 nM"},
      {"measurement": "EC50", "setting": "HCC1569 cells; growth inhibition, three replicates", "value": "37 nM and 41 nM and 40 nM"}
    ]},
    {"molecule": "Nc1ccn([C@@H]2O[C@H](CO)[C@@H](O)C2(F)F)c(=O)n1", "note": "[gemcitabine]", "values": [
      {"measurement": "growth relative to DMSO control", "setting": "HCC1569 cells; 0.556 nM gemcitabine, DMSO = 100", "value": "76.36 and 70.43"},
      {"measurement": "% growth relative to untreated", "setting": "HCC1569 cells; gemcitabine 0.0524288 nM", "value": 96.4701, "unit": "%"},
      {"measurement": "% growth relative to untreated", "setting": "HCC1569 cells; gemcitabine 0.131072 nM", "value": 85.3567, "unit": "%"},
      {"measurement": "% growth relative to untreated", "setting": "HCC1569 cells; gemcitabine 0.32768 nM", "value": 85.2938, "unit": "%"},
      {"measurement": "% growth relative to untreated", "setting": "HCC1569 cells; gemcitabine 0.8192 nM", "value": 45.6374, "unit": "%"},
      {"measurement": "% growth relative to untreated", "setting": "HCC1569 cells; gemcitabine 2.048 nM", "value": 16.2355, "unit": "%"},
      {"measurement": "% growth relative to untreated", "setting": "HCC1569 cells; gemcitabine 5.12 nM", "value": 11.6895, "unit": "%"},
      {"measurement": "% growth relative to untreated", "setting": "HCC1569 cells; gemcitabine 12.8 nM", "value": 9.354, "unit": "%"},
      {"measurement": "% growth relative to untreated", "setting": "HCC1569 cells; gemcitabine 32 nM", "value": 7.468, "unit": "%"},
      {"measurement": "% growth relative to untreated", "setting": "HCC1569 cells; gemcitabine 80 nM", "value": 5.95, "unit": "%"},
      {"measurement": "fold-change of cytoplasmic cyclin B intensity in EdU+ cells", "setting": "cytoplasmic cyclin B; FT282-hTERT-p53-R175H CCNE1 high (C3), gemcitabine 5 nM", "value": "1.161 and 1.404 and 1.38"},
      {"measurement": "fold-change of cytoplasmic cyclin B intensity in EdU+ cells", "setting": "cytoplasmic cyclin B; FT282-hTERT-p53-R175H WT, gemcitabine 5 nM", "value": "1.346 and 1.467 and 1.135"},
      {"measurement": "Quantitation of CDK1 (immunoblot of whole cell lysates)", "setting": "[1]; 5 nM Gemcitabine", "value": "1.203 and 0.9791 and 1.593"},
      {"measurement": "Quantitation of CDK1-pT14 relative to total CDK1 (immunoblot of whole cell lysates)", "setting": "[1]; 5 nM Gemcitabine", "value": "1.528 and 2.085 and 1.888"},
      {"measurement": "Quantitation of cyclin B (immunoblot of whole cell lysates)", "setting": "[1]; 5 nM Gemcitabine", "value": "1.877 and 1.201 and 1.262"},
      {"measurement": "levels of cyclin B or CDK1", "setting": "[1]", "value": "did not detect increased levels"},
      {"measurement": "CDK1 pT14 levels", "setting": "[1]", "value": "increased"}
    ]}
  ]
}
